Source: the NIST ThermoML archive (doi:10.1021/je8002095)

Assays:
[1] = for kinematic viscosity / mass density / speed of sound: 101.33 kPa, Liquid
[2] = molar heat capacity at constant pressure; settings: 101.33 kPa, Liquid, differential scanning calorimeter
[3] = refractive index (Na D-line) (dimensionless); settings: 101.33 kPa, Liquid

CCCCCCCC[n+]1cccc(C)c1.F[B-](F)(F)F [N-octyl-3-methylpyridinium tetrafluoroborate]
Settings | kinematic viscosity, [1] [m2/s] | mass density, [1] [kg/m3] | molar heat capacity at constant pressure, [2] [J/K/mol] | refractive index, [3] | speed of sound, [1] [m/s] | surface tension liquid-gas, [1] [mN/m]
278.15 K | 0.00248 | 1106.4 | 433.8 | – | 1571.9 | 39.82
280.65 K | 0.00193 | 1105 | 435.7 | – | 1564.9 | 39.28
283.15 K | 0.00154 | 1103.6 | 437.4 | 1.45978 | 1557.7 | 38.7
285.65 K | 0.00123 | 1102.1 | 439.4 | 1.45907 | 1549.2 | 38.3
288.15 K | 0.00102 | 1100.7 | 441.4 | 1.45835 | 1541.2 | 37.91
290.65 K | 0.000817 | 1099.4 | 443.7 | 1.45764 | 1533.5 | 37.52
293.15 K | 0.000681 | 1097.7 | 446.1 | 1.45691 | 1526.3 | 37.19
295.65 K | 0.000558 | 1096.3 | 448.4 | 1.4562 | 1518.7 | 36.81
298.15 K | 0.000462 | 1094.5 | 450.5 | 1.45547 | 1511.4 | 36.51
300.65 K | 0.000388 | 1093.3 | 452.8 | 1.45477 | 1505.4 | 36.23
303.15 K | 0.000327 | 1091.5 | 455 | 1.45405 | 1498.1 | 35.94
305.65 K | 0.00028 | 1089.7 | 457.2 | 1.45333 | 1491.2 | 35.67
308.15 K | 0.000238 | 1088.1 | 459.2 | 1.45261 | 1484.6 | 35.46
310.65 K | 0.000205 | 1086.3 | 461.3 | 1.4519 | 1478.1 | 35.22
313.15 K | 0.000177 | 1084.7 | 463.3 | 1.45121 | 1472.3 | 35.02
315.65 K | 0.000156 | 1083.1 | 465.1 | 1.45047 | 1465.7 | 34.81
318.15 K | 0.000136 | 1081.4 | 467 | 1.44976 | 1459.3 | 34.63
320.65 K | 0.000119 | 1079.8 | 468.7 | 1.44903 | 1453.2 | 34.46
323.15 K | 0.000105 | 1078.3 | 470.3 | 1.44831 | 1446.5 | 34.28
325.65 K | 9.27e-05 | 1076.5 | 472 | 1.4476 | 1440.4 | 34.13
328.15 K | 8.22e-05 | 1074.9 | 473.7 | 1.4469 | 1433.6 | 33.98
